“Also recorded” adds a separate entry of the source. Where no end group is shown, it is not given here.
Columns and labels:
[1] = test system: rat aortic endothelium; assay: NO release from rat aortic endothelium; conditions: basal 2.12±0.39
Method: FIG. 7 is a graph showing NO release from rat aortic endothelium in untreated (basal) segments compared to PKC ε peptide inhibitor treated segments (1, 5, and 10 μM).
FIG. 7 illustrates the NO release from rat aortic endothelium in untreated (basal) segments compared to PKC ε peptide inhibitor treated segments (1-10 μM). Acetylcholine (Ach) (10 μM) was used as a positive control. […] Although augmenting endothelial derived NO is usually associated with cardioprotection following I/R, it is speculated that the enzyme responsible for endothelial NO release (eNOS) may shift its product profile to the production of superoxide release when the substrate (L-arginine) or co-factor (BH4) is not readily available during early reperfusion.

[2] = test system: isolated perfused rat hearts; assay: Isolated perfused rat heart ischemia/reperfusion (I/R) cardiac function, with or without PMNs; conditions: for cardioprotection: I/R+PMN
Method: Male Sprague Dawley rats (275-325 g, Ace Animals, Boyertown, Pa.) were anesthetized with 60 mg/kg pentobarbital sodium intraperitoneally (i.p.). Sodium heparin (1,000 U) was also administered i.p. The hearts were rapidly excised, the ascending aortas were cannulated, and retrograde perfusion of the heart was initiated with a modified Krebs buffer maintained at 37° C. at a constant pressure of 80 mmHg. The Krebs buffer had the following composition (in mmol/l): 17 dextrose, 120 NaCl, 25 NaHCO3, 2.5 CaCl2, 0.5 EDTA, 5.9 KCl, and 1.2 MgCl2. The perfusate was aerated with 95% O2 and 5% CO2 and equilibrated at a pH of 7.3-7.4. The two side arms in the perfusion line proximal to the heart inflow cannula allowed PMNs, plasma without PKC ε peptide inhibitor (control hearts) or plasma containing different concentrations of PKC ε peptide inhibitor (1 or 5 μM) to be directly infused into the coronary inflow line. Coronary flow was monitored by a flow meter (T106, Transonic System, Inc., Ithaca, N.Y.). LVDP and +dP/dtmax were monitored using a pressure transducer (SPR-524, Millar Instruments, Inc., Houston, Tex.), which was positioned in the left ventricular cavity. Hearts were immersed in a water-jacketed reservoir containing 160 mL of Krebs buffer maintained at 37° C. Coronary flow, LVDP and +dP/dtmax were recorded using a Powerlab Station acquisition system (ADInstruments, Grand Junction, Colo.) in conjunction with a computer.
LVDP, +dP/dtmax, and coronary flow were measured every 5 min for 15 min to equilibrate the hearts and obtain a baseline measurement. LVDP was defined as left ventricular end-systolic pressure minus left ventricular end-diastolic pressure. After 15 min, the flow of the Krebs buffer was reduced to zero for 20 min to induce global ischemia. At reperfusion, hearts were infused for 5 min with 200×10^6 PMN resuspended in 5 mL of Krebs buffer plus 5 mL of plasma at a rate of 1 mL/min. In some experiments, PKC ε peptide inhibitor (Genemed Synthesis, Inc., San Francisco, Calif.) was added to plasma at a final concentration of 1 or 5 μM. Sham I/R hearts were not subjected to ischemia and were not perfused with PMNs.
The following groups of isolated perfused rat hearts were used:
Group 1: Sham I/R hearts were not subjected to ischemia and were not perfused with PMNs, but were perfused with 5 mL of plasma (1 mL/min) at 35 minutes into perfusion (the same time point that I/R hearts would be given 5 mL of plasma, 15 minutes of baseline recordings plus 20 minutes ischemia). These hearts represented a control group to determine if the isolated rat heart can maintain LVDP and +dP/dtmax throughout the 80-minute protocol (n=6).
Group 2: Sham I/R+PKC ε peptide inhibitor (5 μM) hearts were not subjected to ischemia and not perfused with PMNs. These hearts were administered the PKC ε peptide inhibitor (5 μM, dissolved in plasma from a 5 mM stock in H2O) 35 minutes into perfusion. This group was employed to determine if the PKC ε peptide inhibitor causes a cardiotonic or cardiodepressant effect (n=6).
Group 3: I/R hearts were subjected to 20 min of ischemia and perfused with 5 mL of plasma (1 mL/min) during the first 5 min of reperfusion, but were not perfused with PMNs. These hearts represented a control group to determine if 20 min of ischemia followed by reperfusion stunned the heart, but LVDP and +dP/dtmax will recover to baseline values (initial) by the end of the 45-minute reperfusion period (n=7).
Group 4: I/R+PKC ε peptide inhibitor (5 μM, dissolved in plasma) hearts were subjected to 20 min of ischemia and not perfused with PMNs. These hearts were perfused with 5 mL of plasma+PKC ε peptide inhibitor during the first 5 min of reperfusion. This group was employed to determine if the PKC ε peptide inhibitor causes a cardiodepressant effect in the setting of I/R without PMNs (n=6). […]

[3] = I/R hearts without PMNs + inhibitor 5 μM
[4] = Sham I/R hearts (no ischemia, no PMNs) + inhibitor 5 μM, end of 80 min perfusion

PKC ε peptide inhibitor: Peptide inhibitor of PKC ε (Genemed Synthesis); preferred sequence EAVSLKPT (SEQ ID NO: 1), preferably myristoylated at the N-terminus (not fully specified (N-terminus); listed as Homo sapiens)
NO release ([1]; 5 μM, p<0.05): 0.66±0.28 pmoles/mg tissue | NO release ([1]; 10 μM): 0.26±0.42 pmoles/mg tissue | change in +dP/dtmax, initial vs final [2, 3]: no significant difference | change in LVDP, initial vs final [2, 3]: no significant difference | final LVEDP ([2]; I/R+PMN+inhibitor (5 μM), end of 45 min reperfusion, p<0.01 vs I/R+PMN): 16±2 mmHg | cardioprotection ([2]; 1 μM dose): not cardioprotective | cardioprotection ([2]; 5 μM dose): most cardioprotective | change in +dP/dtmax, initial vs final [2, 4]: did not show any significant change; also recorded: no significant difference | change in LVDP, initial vs final [2, 4]: did not show any significant change; also recorded: no significant difference | direct effect on cardiac contractile function ([2]; Sham I/R hearts, 5 μM): no direct effect
